Results reported in patent US20240174638A1, “HETEROARYL DERIVATIVES AS APELIN RECEPTOR AGONISTS” (RESEARCH TRIANGLE INSTITUTE, priority 2021, published 2024).

Tests used:
Human plasma protein = settings: 6 h, 1 μM
Mouse plasma protein = settings: 6 h, 1 μM
Rat plasma protein = settings: 6 h, 1 μM
in vitro [1] = settings: human
in vitro [2] = settings: mouse, pH 7.4
in vitro [3] = settings: rat, pH 7.4
[4] = tested on: Salmonella typhimurium (TA98, TA100, TA1535 and TA1537)
[5] = tested on: BLEO-induced lung fibrosis in male C57BL/6 mice; assay: Chronic (21-day) bleomycin-induced lung fibrosis model, prophylactic (Px) and therapeutic (Tx) arms; assay type: in vivo, mouse
[6] = relative to Vehicle-treated BLEO-instilled controls

Row | Compound | % Protein Bound Rep 1 (Human plasma protein) | % Protein Bound Rep 2 (Human plasma protein) | % Protein Bound Rep 3 (Human plasma protein) | Buffer Concentration Rep 1 (Human plasma protein) | Buffer Concentration Rep 2 (Human plasma protein) | Buffer Concentration Rep 3 (Human plasma protein) | Plasma Concentration Rep 1 (Human plasma protein) | Plasma Concentration Rep 2 (Human plasma protein) | Plasma Concentration Rep 3 (Human plasma protein) | % Protein Bound Rep 1 (Mouse plasma protein) | % Protein Bound Rep 2 (Mouse plasma protein) | % Protein Bound Rep 3 (Mouse plasma protein) | Buffer Concentration Rep 1 (Mouse plasma protein) | Buffer Concentration Rep 2 (Mouse plasma protein) | Buffer Concentration Rep 3 (Mouse plasma protein) | Mean % Protein Bound (Mouse plasma protein) | Plasma Concentration Rep 2 (Mouse plasma protein) | Plasma Concentration Rep 3 (Mouse plasma protein) | % Protein Bound Rep 1 (Rat plasma protein) | % Protein Bound Rep 2 (Rat plasma protein) | further results
1 | CCCC(=O)Nc1ccc(OCC(O)CNC(C)C)c(C(C)=O)c1 (stereo not drawn) [Acebutolol] | −12.84% | −22.81% | −2.59% | 544.3 nM | 539.8 nM | 494.8 nM | 482.3 nM | 439.6 nM | 482.3 nM | 18.36% | 23.23% | 20.05% | 274.4 nM | 258.1 nM | 268.1 nM | 20.50% | 336.2 nM | 335.3 nM | −11.35% | −26.18% | Plasma Concentration Rep 1 (Mouse plasma protein): 336.0 nM; % Protein Bound Rep 3 (Rat plasma protein): −33.75%; Buffer Concentration Rep 1 (Rat plasma protein): 552.8 nM; Buffer Concentration Rep 2 (Rat plasma protein): 571.3 nM; Buffer Concentration Rep 3 (Rat plasma protein): 639.1 nM; Plasma Concentration Rep 1 (Rat plasma protein): 455.6 nM; Plasma Concentration Rep 2 (Rat plasma protein): 452.8 nM; Plasma Concentration Rep 3 (Rat plasma protein): 477.8 nM; recovery at 6 h, 1 μM (in vitro [1]): 99.4%; recovery at 6 h, 1 μM (in vitro [2]): 60.3%; recovery at 6 h, 1 μM (in vitro [3]): 105%
2 | COc1ccc2nc3cc(Cl)ccc3c(NCCCNCCCl)c2c1 [ICR-191] |  |  |  |  |  |  |  |  |  |  |  |  |  |  |  |  |  |  |  |  | Cytotoxicity Code [4]: N; Mean Revertant Colony Counts ([4]; Salmonella typhimurium): 66.00; Ratio ([4]; Salmonella typhimurium): 28.33
3 | Cc1ccc(=O)n(-c2ccccc2)c1 [PIRF, Pirfenidone, reference compound] |  |  |  |  |  |  |  |  |  |  |  |  |  |  |  |  |  |  |  |  | 21-day survival rate ([5]; BLEO-instilled mice, Px PIRF 200 mg/kg/day p.o. BID): 94%; ΔBW ([5]; D0-D21, relative to Vehicle-treated BLEO-instilled controls): Neither EXAMPLE 22 nor PIRF affected; composite Collagen Volume Fraction (CVF) ([5]; Px PIRF 200 mg/kg/day, Vehicle 2.63±0.24%): 1.87±0.19%; composite Tissue Collagen Fraction (TCF) ([5]; Px PIRF 200 mg/kg/day, Vehicle 5.58±0.34%): 4.43±0.34%; LW indexed to tibia length (LW:TL) [5, 6]: Neither EXAMPLE 22 nor PIRF affected; endpoint lung OH-P content [5, 6]: Neither EXAMPLE 22 nor PIRF affected; endpoint lung weight (LW) [5, 6]: Neither EXAMPLE 22 nor PIRF affected; final BW [5, 6]: Neither EXAMPLE 22 nor PIRF affected; serial BW [5, 6]: Neither EXAMPLE 22 nor PIRF affected
4 | CC(=O)CC(c1ccccc1)c1c(O)c2ccccc2oc1=O (stereo not drawn) [Warfarin] | 97.59% | 98.26% | 98.01% | 21.6 nM | 17.3 nM | 18.4 nM | 897.5 nM | 993.2 nM | 926.2 nM | 89.13% | 90.27% | 91.02% | 91.8 nM | 89.5 nM | 82.3 nM | 90.10% | 919.8 nM | 917.0 nM | 99.46% | 99.25% | Mean % Protein Bound (Human plasma protein): 97.96%; % Protein Bound Rep 3 (Rat plasma protein): 97.82%; Buffer Concentration Rep 1 (Rat plasma protein): 4.4 nM; Buffer Concentration Rep 2 (Rat plasma protein): 5.9 nM; Buffer Concentration Rep 3 (Rat plasma protein): 17.7 nM; Mean % Protein Bound (Rat plasma protein): 98.80%; recovery at 6 h, 1 μM (in vitro [1]): 95.4%; recovery at 6 h, 1 μM (in vitro [2]): 98.2%; recovery at 6 h, 1 μM (in vitro [3]): 81.4%
